Laboratory results published in patent publication US9605002B2, “5,5-heteroaromatic anti-infective compounds” (priority 2012, dated 2017).
Values joined by “and” are separate entries in the source; they are usually repeats but may differ in a detail not shown here. Equal entries are not always repeated.

Columns and labels:
Assay in all cases: MIC against clinical Mtb strains
Type in all cases: cell-based
Details in all cases: Mycobacterium tuberculosis
[1] = tested on: XDR-TB resistant to HREKO
[2] = tested on: MDR-TB resistant to HREKP
[3] = tested on: MDR-TB resistant to HREZSKP
[4] = tested on: MDR-TB resistant to HRERb
[5] = tested on: XDR-TB resistant to HRESKO

SMILES | MIC90 [1] | MIC90 [2] | MIC90 [3] | MIC90 [4] | MIC90 [5]
Cc1cn2c(C(=O)NCc3ccc(Oc4ccc(F)cc4)cc3)c(C)nc2s1 [ND-010081] | < 0.01 µM and < 0.025 µg/mL | < 0.01 µM and < 0.025 µg/mL | 0.02 µM to 10 µM and 0.05 µg/mL to 25 µg/mL | 0.63 µM and 1.6 µg/mL | < 0.01 µM and < 0.025 µg/mL
O=[N+]([O-])c1cn2c(n1)OC[C@@H](OCc1ccc(OC(F)(F)F)cc1)C2 [PA-824, reference compound] | 0.22 µM and 0.08 µg/mL | 0.45 µM to 0.86 µM and 0.16 µg/mL to 0.31 µg/mL | 0.45 µM to 0.86 µM and 0.16 µg/mL to 0.31 µg/mL | 0.45 µM to 0.86 µM and 0.16 µg/mL to 0.31 µg/mL | 0.86 µM and 0.31 µg/mL
